Reference: patent publication US20040204577A1, “Novel peptide-forming enzyme gene” (Ajinomoto Co., Inc., priority 2003, published 2004)
Where a SMILES comes first, the peptide text is derived from it.

What was measured:
[1] = tested on: enzyme derived from Sphingobacterium sp. strain FERM BP-8124 (SP-Sepharose HP fraction enzyme); test: Enzyme substrate specificity (11), (12): peptide production; assay type: biochemical; parameters: key to Produced peptide (Table 15-1) / Produced peptide (Table 15-3) / Produced peptide (Table 15-4): +: those peptides for which production was confirmed but which were unable to be quantified due to the absence of a standard; a trace amount; conditions: carboxy component 100 mM, 0.33 units enzyme, pH 9.0, 25° C., 1.5 hours; for Produced peptide (Table 15-4): amides and methylamine; for Produced peptide (Table 15-2): L-Gln 150 mM
Excerpt: Substrate specificity was examined for enzyme derived from Sphingobacterium sp. strain FERM BP-8124 (Depositary institution: the independent administrative corporation, National Institute of Advanced Industrial Science and Technology, International Patent Organism Depositary, Address of depositary institution: Chuo Dai-6, 1-1 Higashi 1-Chome, Tsukuba-shi, Ibaraki-ken, Japan, International deposit date: […] The amounts of various peptides formed in this reaction are shown in Table 15. The “+” mark indicates those peptides for which production was confirmed but which were unable to be quantified due to the absence of a standard, while “tr” indicates a trace amount. Furthermore, Tween-80 was added to the reaction system to a final concentration of 0.1% in the case of using L-Tyr-OMe. In addition, hydrochloride salts were used for all carboxy components. Substrate specificity with respect to oligopeptide production was examined for enzyme derived from Sphingobacterium sp. strain FERM BP-8124 (Depositary institution: the independent administrative corporation, National Institute of Advanced Industrial Science and Technology, International Patent Organism Depositary, Address of depositary institution: Chuo Dai-6, 1-1 Higashi 1-Chome, Tsukuba-shi, Ibaraki-ken, Japan, International deposit date: […] The amounts of each oligopeptide formed in this reaction are shown in Table 16. Furthermore, hydrochloride salts were used for all the carboxy components.

[2] = tested on: peptide-forming enzyme (Mono S fraction enzyme); test: Enzyme substrate specificity (1)-(10), (13), (14): peptide production; assay type: biochemical, Empedobacter brevis; parameters: key to Formed peptide: +: those peptides for which production was confirmed but which were unable to be quantified due to the absence of a standard; a trace amount; conditions: pH 9.0, 25° C., 3 hours
Method: Ester specificity was examined in the case of using L-amino acid ester for the carboxy component. 2 μl of the same enzyme fraction as used in Example 5 was added to 100 μl of 100 mM borate buffer (pH 9.0) containing the carboxy components indicated in Table 4 at 100 mM, 200 mM L-glutamine and 10 mM EDTA, and allowed to react at 25° C. for 2 hours. HCl represents hydrochloride in Table 4.
Peptide production was examined in the case of using L-alanine methyl ester for the carboxy component and using various L-amino acids for the amine component.
Peptide production was examined in the case of using various types of L-amino acid methyl esters for the carboxy component and using L-glutamine for the amine component. 2 μl of the same enzyme fraction as used in Example 5 was added to 100 μl of 100 mM borate buffer (pH 9.0) containing the L-amino acid methyl ester hydrochloride salts (AA-OMe.HCl) shown in Table 6 at 100 mM, 150 mM L-glutamine and 10 mM EDTA, and allowed to react at 25° C. for 3 hours. […] Furthermore, Tween-80 was added to the reaction system to a final concentration of 0.1% in the case of using L-Trp-OMe and L-Tyr-OMe.
Peptide production was examined in the case of using various L-amino acid methyl esters for the carboxy component and various L-amino acids for the amine component. 2 μl of the same enzyme fraction as used in Example 5 was added to 100 μl of 100 mM borate buffer (pH 9.0) containing the L-amino acid methyl ester hydrochloride salts (AA-OMe.HCl) shown in Table 7 at 100 mM, the L-amino acids shown in Table 7 at 150 mM and 10 mM EDTA, and allowed to react at 25° C. for 3 hours. The “tr” indicates a trace amount. Furthermore, Tween-80 was added to the reaction system to a final concentration of 0.1% in the case of using L-Trp-OMe.
Peptide production was examined in the case of using the L or D forms of various amino acid methyl esters for the carboxy component, and the L or D forms of various amino acids for the amine component. 2 μl of the same enzyme fraction as used in Example 5 was added to 100 μl of 100 mM borate buffer (pH 9.0) containing the various amino acid methyl ester hydrochloride salts (AA-OMe HCl) shown in Table 8 at 100 mM, the various amino acids shown in Table 8 at 150 mM and 10 mM EDTA, and allowed to react at 25° C. for 3 hours. The “tr” indicates a trace amount.
Peptide production was examined using various L-amino acid amides for the carboxy component, and various L-amino acids for the amine component. 2 μl of the same enzyme fraction as that used in Example 5 was added to 100 μl of 100 mM borate buffer (pH 9.0) containing the L-amino acid amide hydrochloride salt (M-NH2.HCl) shown in Table 9 at 100 mM, the L-amino acids shown in Table 9 at 150 mM and 10 mM EDTA, and allowed to react at 25° C. for 3 hours.
Peptide production was examined in the case of using various L-alanine methyl esters for the carboxy component and C-protected L-amino acids for the amine component. 2 μl of the same enzyme fraction as used in Example 5 was added to 100 μl of 100 mM borate buffer (pH 9.0) containing the L-alanine methyl ester hydrochloride hydrochloride salt (Ala-OMe.HCl) shown in Table 10 at 100 mM, the L-amino acid amide hydrochloride salts shown in Table 10 at 150 mM and 10 mM EDTA, and allowed to react at 25° C. for 3 hours.
Peptide production was examined in the case of using various amino acid methyl esters for the carboxy component and methylamine for the amine component. 2 μl of the same enzyme fraction as used in Example 5 was added to 100 μl of 100 mM borate buffer (pH 9.0) containing the amino acid methyl ester hydrochloride salt (M-OMe.HCl) shown in Table 11 at 100 mM, the methylamine shown in Table 11 at 150 mM and 10 mM EDTA, and allowed to react at 25° C. for 3 hours.
Peptide production was examined in the case of using […] for the carboxy component or β-amino acid for the amine component.

[3] = 100 mM L-alanine methyl ester hydrochloride, L-amino acid 150 mM
[4] = amino acid methyl ester hydrochloride 100 mM, methylamine 150 mM
[5] = L-amino acid methyl ester hydrochloride 100 mM, 150 mM L-glutamine
[6] = L-amino acid methyl ester hydrochloride 100 mM, L-amino acid 150 mM
[7] = L-amino acid amide hydrochloride as carboxy component 100 mM, L-amino acid 150 mM

Row | Molecule | Produced peptide (Table 15-2) [1] [mM] | Formed peptide [2, 5] | Produced peptide (Table 15-3) ([1]; amine component 150 mM) | Formed peptide [2, 6] [mM] | also measured
1 | C[C@H](N)C(=O)N1CCC[C@H]1C(=O)O [L-Ala-L-Pro] (H-Ala-Pro-OH) |  |  |  |  | Produced peptide (Table 15-1) ([1]; amine component 150 mM): 1.5 mM; Formed peptide [2, 3]: tr
2 | C[C@H](N)C(=O)N[C@H](C(=O)O)[C@@H](C)O [L-Ala-L-Thr] (H-Ala-Thr-OH) |  |  |  |  | Produced peptide (Table 15-1) ([1]; amine component 150 mM): 47.3 mM; Formed peptide [2, 3]: 53.9 mM
3 | C[C@H](N)C(=O)N[C@@H](Cc1c[nH]c2ccccc12)C(=O)O [L-Ala-L-Trp] (H-Ala-Trp-OH) |  |  |  |  | Produced peptide (Table 15-1) ([1]; amine component 150 mM): 46.0 mM; Formed peptide [2, 3]: 53.9 mM
4 | C[C@H](N)C(=O)N[C@@H](Cc1ccc(O)cc1)C(=O)O [L-Ala-L-Tyr] (H-Ala-Tyr-OH) |  |  |  |  | Produced peptide (Table 15-1) ([1]; amine component 150 mM): 11.1 mM; Formed peptide [2, 3]: 17.6 mM
5 | CC(C)[C@H](NC(=O)[C@H](C)N)C(=O)O [L-Ala-L-Val] (H-Ala-Val-OH) |  |  |  |  | Produced peptide (Table 15-1) ([1]; amine component 150 mM): 10.9 mM; Formed peptide [2, 3]: 20.8 mM
6 | CNC(=O)C(C)N [L-Ala-methylamine] |  |  |  |  | Produced peptide (Table 15-4) ([1]; amine component 150 mM): 0.6 mM; Formed peptide [2, 4]: 0.3 mM
7 | NC(=O)CC[C@H](NC(=O)[C@@H](N)CCCN=C(N)N)C(=O)O [L-Arg-L-Gln] (H-Arg-Gln-OH) | 17.2 | 7.1 mM |  |  | 
8 | CSCC[C@H](NC(=O)[C@@H](N)CCCN=C(N)N)C(=O)O [L-Arg-L-Met] (H-Arg-Met-OH) |  |  | tr | 0.7 | 
9 | NC(N)=NCCC[C@H](N)C(=O)N[C@@H](Cc1ccccc1)C(=O)O [L-Arg-L-Phe] |  |  | tr | 1.9 | 
10 | NC(N)=NCCC[C@H](N)C(=O)N[C@@H](CO)C(=O)O [L-Arg-L-Ser] (H-Arg-Ser-OH) |  |  | 2.2 mM | 3.6 | 
11 | NC(=O)CC[C@H](NC(=O)[C@@H](N)CCC(N)=O)C(=O)O [L-Gln-L-Gln] (H-Gln-Gln-OH) | 0.1 | 0.3 mM |  |  | 
12 | CC[C@H](C)[C@H](N)C(=O)N[C@@H](CCC(N)=O)C(=O)O [L-Ile-L-Gln] (H-Ile-Gln-OH) | 6.4 | 8.4 mM |  |  | 
13 | CC[C@H](C)[C@H](N)C(=O)N[C@@H](Cc1ccccc1)C(=O)O [L-Ile-L-Phe] (H-Ile-Phe-OH) |  |  | 1.5 mM | 5.2 | 
14 | CC[C@H](C)[C@H](N)C(=O)N[C@@H](CO)C(=O)O [L-Ile-L-Ser] (H-Ile-Ser-OH) |  |  | 17.3 mM | 17.2 | 
15 | CSCC[C@H](N)C(=O)N[C@@H](CCC(N)=O)C(=O)O [L-Met-L-Gln] (H-Met-Gln-OH) | 32.6 | 12.0 mM |  |  | 
16 | NC(=O)CC[C@H](NC(=O)[C@@H](N)Cc1ccccc1)C(=O)O [L-Phe-L-Gln] | 0.8 | 0.9 mM |  |  | Formed peptide [2, 7]: 0.2 mM

Row | Molecule | Produced peptide (Table 15-2) [1] [mM] | Formed peptide [2, 5] | Produced peptide (Table 15-3) ([1]; amine component 150 mM) | Formed peptide [2, 6] [mM] | also measured
17 | NC(=O)CC[C@H](NC(=O)[C@@H]1CCCN1)C(=O)O [L-Pro-L-Gln] (H-Pro-Gln-OH) | 1.8 | 2.2 mM |  |  | 
18 | NC(=O)CC[C@H](NC(=O)[C@@H](N)CO)C(=O)O [L-Ser-L-Gln] (H-Ser-Gln-OH) | 12.9 | 24.0 mM |  |  | 
19 | CSCC[C@H](NC(=O)[C@@H](N)CO)C(=O)O [L-Ser-L-Met] (H-Ser-Met-OH) |  |  | 7.6 mM | 12.5 | 
20 | N[C@@H](CO)C(=O)N[C@@H](Cc1ccccc1)C(=O)O [L-Ser-L-Phe] |  |  | 4.3 mM | 20.3 | 
21 | C[C@@H](O)[C@H](N)C(=O)NCC(=O)O [L-Thr-Gly] (H-Thr-Gly-OH) |  |  | 0.4 mM | 9.4 | 
22 | C[C@H](NC(=O)[C@@H](N)[C@@H](C)O)C(=O)O [L-Thr-L-Ala] (H-Thr-Ala-OH) |  |  | 5.8 mM | 9.4 | 
23 | C[C@@H](O)[C@H](N)C(=O)N[C@@H](CCC(N)=O)C(=O)O [L-Thr-L-Gln] (H-Thr-Gln-OH) | 36.1 | 81.9 mM |  |  | Formed peptide [2, 7]: 0.3 mM
24 | CSCC[C@H](NC(=O)[C@@H](N)[C@@H](C)O)C(=O)O [L-Thr-L-Met] (H-Thr-Met-OH) |  |  | 28.9 mM | 38.6 | 
25 | CC(C)[C@H](NC(=O)[C@@H](N)[C@@H](C)O)C(=O)O [L-Thr-L-Val] (H-Thr-Val-OH) |  |  | 1.3 mM | 0.7 | 
26 | CNC(=O)[C@@H](N)[C@@H](C)O [L-Thr-methylamine] |  |  |  |  | Produced peptide (Table 15-4) ([1]; amine component 150 mM): 0.3 mM; Formed peptide [2, 4]: 0.2 mM
27 | NC(=O)CC[C@H](NC(=O)[C@@H](N)Cc1ccc(O)cc1)C(=O)O [L-Tyr-L-Gln] (H-Tyr-Gln-OH) | 0.6 | 3.4 mM |  |  | 
28 | CC(C)[C@H](N)C(=O)N[C@@H](CCC(N)=O)C(=O)O [L-Val-L-Gln] (H-Val-Gln-OH) | 8.2 | 15.4 mM |  |  | 
29 | CC(C)[C@H](N)C(=O)N[C@@H](Cc1ccccc1)C(=O)O [L-Val-L-Phe] (H-Val-Phe-OH) |  |  | 1.0 mM | 6.1 | 
30 | CC(C)[C@H](N)C(=O)N[C@@H](CO)C(=O)O [L-Val-L-Ser] (H-Val-Ser-OH) |  |  | 31.9 mM | 30.8 | 
31 | NC(=O)CC[C@H](NC(=O)[C@@H](N)CC(=O)O)C(=O)O [α-L-Asp-L-Gln] (H-Asp-Gln-OH) | 0.05 | tr |  |  | 
32 | Gly-L-Ala-L-Tyr |  |  |  |  | Produced peptide (Table 16, oligopeptide) ([1]; amine component 150 mM): 0.6 mM; Produced peptide ([2]; L-amino acid ester 100 mM, peptide (amine component) 150 mM): 1.7 mM
